The nature of series [1]: Maximum tolerated dose in CD2F1 hybrid mice. In kind it is in vivo. Conditions: female, CD2F1, mouse, in vivo, iv. Here is the method:
BALB/c and DBA/2 mice were obtained from Animal Resources Centre (University of New South Wales (UNSW), Sydney, Australia) and crossed to produce CD2F1 animals (all procedures used were approved by the Animal Ethics Committee, UNSW). Groups of eight female CD2F1 mice (8-10 weeks old) were fed and watered ad-libitum, and injected via the tail vein with compounds being studied in 30% propylene glycol in 0.9% sterile saline, twice a day, 6 h apart, 5 days/week for 2 weeks. The maximum tolerated dose (MTD) was defined as the dose at which 30% of a cohort either died or lost weight in excess of 10%.^19

In series [2] the test system is SK-N-MC neuroepithelioma cells. The series is described as follows: MTT cellular proliferation assay, SK-N-MC. As to conditions: Homo sapiens, SK-N-MC; Table 3; 0-25 μM, 72 h, MTT; mean ± SD; read-out: IC50 SK-N-MC neuroepithelioma. In kind it is cell-based, human. On the procedure: […] […] After this incubation, 0.01 mL of MTT was added to each well and the plates incubated for 2 h at 37° C. The cells were then solubilised by adding 0.1 mL of 10% SDS-50% isobutanol in 0.01 M HCl and the plates then read at 570 nm on a scanning multiwell spectrophotometer (Titertek Multiscan; Beckman Instruments Inc, California). MTT colour formation was directly proportional to the number of viable cells.
The effect of the compounds on the proliferation of SK-N-MC neuroepithelioma cells was examined using the MTT assay (described above).
(§1) Dp2mT served as a negative control.

The test system of a further series is M109 lung carcinoma. Put plainly: Inhibition of M109 lung carcinoma growth in vivo. As to conditions: 6 mg/kg (MTD), day 12. Set-up: species or system mouse. Here is the method:
Inhibition of M109 Lung Cancer Cell Growth by Iron Chelators In Vivo Female CD2F1 mice aged 8-10 weeks old were sc implanted with 1×10^5 M109 cells. The tumour cells were passaged in CD2F1 mice by preparing a brei from the tumour and injecting it sc.^20 Dp44mT was dissolved in 30% (v/v) propylene glycol in saline and injected iv 4 days after tumour engraftment, twice daily for 5 days followed by a “rest period” of 2 days when the animal was not injected. On the twelfth day after tumour implantation, mice were sacrificed using methoxyfluorane and cardiac puncture performed. Blood counts and erythrocyte indices were measured using a Sysmex Blood Counter (Prince of Wales Hospital, Sydney, Australia). Mouse body weight changes during the treatment period were recorded. The tumours were weighed and fixed for histological examination. The experimental groups consisted of eight mice for the control and each treatment (Table 5).
As a relevant positive control, animals were administered Triapine® at its MTD (6 mg/kg). The tumour weight was measured on the twelfth day after the tumour cell implantation.

A further series relates to SK-Mel-28 melanoma cells. The series is described as follows: MTT cellular proliferation assay, SK-Mel-28. In kind it is cell-based, human. As to conditions: Homo sapiens, SK-MEL-28, 72 h, Table 3, mean ± SD. On the procedure: The final concentration of the compounds was 0.39-50 μM. […] […] After this incubation, 0.01 mL of MTT was added to each well and the plates incubated for 2 h at 37° C. The cells were then solubilised by adding 0.1 mL of 10% SDS-50% isobutanol in 0.01 M HCl and the plates then read at 570 nm on a scanning multiwell spectrophotometer (Titertek Multiscan; Beckman Instruments Inc, California). MTT colour formation was directly proportional to the number of viable cells.
as §1
(§2) Dp2mT served as a negative control as the methyl group at the 2-position hinders Fe-chelation.

The nature of series [3]: Mouse weight loss and haematological indices in M109-bearing mice. In kind it is in vivo. Conditions: Triapine 6 mg/kg; Mean ± SEM. On the procedure:
The tumour cells were passaged in CD2F1 mice by preparing a brei from the tumour and injecting it sc.^20 Dp44mT was dissolved in 30% (v/v) propylene glycol in saline and injected iv 4 days after tumour engraftment, twice daily for 5 days followed by a “rest period” of 2 days when the animal was not injected. On the twelfth day after tumour implantation, mice were sacrificed using methoxyfluorane and cardiac puncture performed. Blood counts and erythrocyte indices were measured using a Sysmex Blood Counter (Prince of Wales Hospital, Sydney, Australia). Mouse body weight changes during the treatment period were recorded. The tumours were weighed and fixed for histological examination. The experimental groups consisted of eight mice for the control and each treatment (Table 5).

The test system of series [4] is MCF-7 breast cancer cells. The series is described as follows: MTT cellular proliferation assay, MCF-7. Conditions: Homo sapiens, MCF7, 72 h, Table 3; 72 h, MTT; mean ± SD; read-out: IC50 MCF-7 breast cancer. In kind it is cell-based, human. On the procedure: […] […] […] After this incubation, 0.01 mL of MTT was added to each well and the plates incubated for 2 h at 37° C. The cells were then solubilised by adding 0.1 mL of 10% SDS-50% isobutanol in 0.01 M HCl and the plates then read at 570 nm on a scanning multiwell spectrophotometer (Titertek Multiscan; Beckman Instruments Inc, California). MTT colour formation was directly proportional to the number of viable cells.
as §1, §2

Molecules are shown by their SMILES.

Molecule `NC(=S)NN=Cc1ncccc1N` [Triapine, 3-aminopyridine-2-carboxaldehyde thiosemicarbazone] came in with an MTD at 2 weeks in series [1] of 6 mg/kg. Besides, the IC50 in series [2] was 0.26 µM. In addition, the tumour weight in the series with M109 lung carcinoma was 10 % of the control. Besides, it took 2.6 ± 0.6 µM to reach half-maximal inhibition in the series on SK-Mel-28 melanoma cells (IC50). In series [3], the Body weight loss came to 5.3 ± 0.4 g, the Haematocrit was determined as 0.28 ± 0.01, the Haemoglobin is on record as 8.6 ± 0.5 g/dL and the Platelets was 976 ± 171 10^9/L. Further, in series [3], the RBC is reported as 6.1 ± 0.4 10^12/L and the WBC was 1.4 ± 0.3 10^9/L. In addition, in series [4], the IC50 came to 3 ± 1.5 µM.

(Values after patent publication US20060252798A1, “Metal ion chelators and therapeutic use thereof” (priority 2003, published 2006).)
